Data taken from US8586552B2, “4,6-substituted 2,5-dideoxystreptamine aminoglycoside antibiotics” (SelectX Pharmaceuticals, Inc., priority 2012, dated 2013).
In brackets after ≈: the same amount, converted by molar mass.

Legend:
Format in all cases: cell-based
[1] = tested on: Klebsiella pneumoniae KR2 (clinical isolate with intermediate aminoglycoside resistance); test: MIC against Klebsiella pneumoniae clinical isolate KR2; settings: Klebsiella pneumonia KR2
Text: Klebsiella pneumoniae (Kpn) and Escherichia coli (Eco) are gram-negative (like Pae), enteric pathogens with increasing clinical relevance. Many clinical isolates of Kpn and Eco harbor extended-spectrum beta-lactamases and are no longer sensitive to most beta-lactam antibiotics. We acquired clinical isolates of Klebsiella pneumoniae and Escherichia coli (Micromyx LLC, Kalamazoo, Mich.) and used this panel to test compounds for anti-enteric activity.

[2] = tested on: more than fifty resistant contemporary clinical isolates of Pseudomonas aeruginosa; test: MIC90 against panel of resistant clinical isolates of Pseudomonas aeruginosa
[3] = tested on: Acinetobacter baumannii AB1; test: MIC against Acinetobacter baumannii clinical isolate AB1
Text: (§1) Acinetobacter baumannii is another clinically important and very challenging gram negative pathogen. Members of the Acinetobacter genus, including baumannii, have a remarkable ability to upregulate and acquire resistance determinants. Coupled with its ability to survive for prolonged periods in a hospital environment, A. baumannii is an emerging threat for healthcare institutions globally. We acquired clinical isolates of Acinetobacter baumannii and used this panel to test compounds for anti-Acinetobacter activity. We first tested reference AGs against our panel of Aba strains.

[4] = tested on: Pseudomonas aeruginosa PR1 (clinical isolate with intermediate aminoglycoside resistance); test: MIC against Pseudomonas aeruginosa clinical isolate PR1; settings: Pseudomonas aeruginosa resistant strain PR1
[5] = tested on: Acinetobacter baumannii AB3; test: MIC against Acinetobacter baumannii clinical isolate AB3
Text: as §1

[6] = tested on: Pseudomonas aeruginosa PR3 (high-level, efflux-mediated, pan-aminoglycoside resistance); test: MIC against Pseudomonas aeruginosa clinical isolate PR3; settings: Pseudomonas aeruginosa resistant strain PR3
[7] = tested on: fifty resistant contemporary clinical isolates of Acinetobacter baumannii; test: MIC90 against panel of resistant clinical isolates of Acinetobacter baumannii
Text: As in the case of Pseudomonas aeruginosa and Klebsiella pneumoniae, we considered whether the SAR observed against select Acinetobacter baumannii strains 1, 2 or 3 was indicative of general potency. […] Using this stringent Acinetobacter baumannii panel, we tested a subset of compounds of the invention.

[8] = tested on: fifty resistant contemporary clinical isolates of Klebsiella pneumoniae; test: MIC90 against panel of resistant clinical isolates of Klebsiella pneumoniae; settings: stringent panel of resistant clinical isolates, Table 5
Text: Using this stringent Klebsiella pneumoniae panel, we tested a subset of compounds of the invention.

For NCCCNCC1OC(OC2C(NC(=O)C(O)CCN)CC(N)C(OC3OC(CN)C(O)CC3N)C2F)C(O)C(N)C1O (centres unmarked) [SXP 2523], the “MIC KR2” value [1] was 0.5-1, the “MIC90 Pseudomonas aeruginosa” value [2] was 4 µg/mL (≈ 6.38 µM) and the “MIC AB1” value [3] was 2 to 4 µg/mL. The “MIC PR1” value [4] was 1 to 2 µg/mL, the “MIC AB3” value [5] was 4 to 8 µg/mL and the “MIC PR3” value [6] was 4 µg/mL (≈ 6.38 µM). For the same compound, the “MIC90 Acinetobacter baumannii” value [7] was 4 µg/mL (≈ 6.38 µM) and the MIC90 Klebsiella pneumonia [8] was 1 µg/mL (≈ 1.6 µM).
